Among the data in US11174251B2, “Compositions and methods for inhibition of the JAK pathway” (Rigel Pharmaceuticals, Inc., priority 2010, dated 2021) are IC50 values, retold here.

SMILES strings stand for the structures. Where a name gives a salt, the structure may show the parent alone.

This assay addresses T1, JAK3 (Homo sapiens, UniProt P52333).
T1 construct: The Ramos B-cell line was acquired from ATCC (ATCC Catalog No. CRL-1596); host or cells: Ramos B-cell line (human)
T1 sequence (P52333 1-1124): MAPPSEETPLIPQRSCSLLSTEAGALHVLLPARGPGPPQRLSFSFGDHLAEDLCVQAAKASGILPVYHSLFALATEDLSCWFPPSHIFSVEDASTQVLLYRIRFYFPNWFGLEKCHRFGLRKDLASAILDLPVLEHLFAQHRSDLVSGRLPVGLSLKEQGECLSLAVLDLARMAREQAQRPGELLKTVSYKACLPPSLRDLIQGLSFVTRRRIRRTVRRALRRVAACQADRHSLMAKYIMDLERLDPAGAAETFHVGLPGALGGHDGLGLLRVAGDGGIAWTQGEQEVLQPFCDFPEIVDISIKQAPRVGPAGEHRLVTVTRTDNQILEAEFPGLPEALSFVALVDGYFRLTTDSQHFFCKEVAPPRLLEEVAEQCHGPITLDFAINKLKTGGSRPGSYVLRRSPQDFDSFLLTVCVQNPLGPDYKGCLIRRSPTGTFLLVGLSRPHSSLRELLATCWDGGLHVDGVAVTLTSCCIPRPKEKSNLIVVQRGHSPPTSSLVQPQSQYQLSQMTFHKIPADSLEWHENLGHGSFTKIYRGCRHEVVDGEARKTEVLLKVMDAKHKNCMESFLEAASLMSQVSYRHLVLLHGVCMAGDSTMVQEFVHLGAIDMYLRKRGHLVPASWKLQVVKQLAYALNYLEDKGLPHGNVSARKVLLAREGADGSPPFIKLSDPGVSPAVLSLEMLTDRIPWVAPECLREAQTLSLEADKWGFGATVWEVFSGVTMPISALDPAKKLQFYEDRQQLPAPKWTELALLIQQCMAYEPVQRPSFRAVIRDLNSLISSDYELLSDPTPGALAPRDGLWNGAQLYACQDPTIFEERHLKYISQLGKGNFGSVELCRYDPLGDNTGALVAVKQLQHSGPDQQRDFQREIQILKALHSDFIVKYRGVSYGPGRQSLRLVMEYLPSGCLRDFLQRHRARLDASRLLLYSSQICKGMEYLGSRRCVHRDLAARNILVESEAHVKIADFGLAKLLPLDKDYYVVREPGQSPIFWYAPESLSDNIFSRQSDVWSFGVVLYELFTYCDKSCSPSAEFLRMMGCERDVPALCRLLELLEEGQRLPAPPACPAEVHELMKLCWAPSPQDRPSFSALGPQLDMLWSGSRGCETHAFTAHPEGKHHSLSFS
In words: Assay for CD23 expression on Ramos B-cells stimulated by IL-4 (Table IV: ability to inhibit JAK3 activity). As to conditions: tested under conditions described in Example 3 (so in the source). It counts as cell-based. The method in brief:
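Human Ramos B cells in RPMI with 5% serum, pre-incubated 1 h at 37 °C with compound or DMSO, then stimulated with IL-4 (final 50 units/mL) for 20–24 h. Surface CD23 upregulation measured by FACS staining as readout of JAK1/JAK3–Stat-6 signalling.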

Compound `COc1cc(Nc2ncc(F)c(Nc3ccc4oc(=O)[nH]c4c3)n2)cc(C)c1OC` [Compound I-182, 5-(2-(3,4-dimethoxy-5-methylphenylamino)-5-fluoropyrimidin-4-ylamino)benzo[d]oxazol-2(3H)-one trifluoroacetate salt] yielded an IC50 of less than 500 nM.
Then `COc1cc(Nc2ncc([N+](=O)[O-])c(Nc3ccc4oc(=O)[nH]c4c3)n2)cc(C(F)(F)F)c1` [Compound I-47, 5-(2-(3-methoxy-5-(trifluoromethyl)phenylamino)-5-nitropyrimidin-4-ylamino)benzo[d]oxazol-2(3H)-one trifluoroacetate salt], with greater than 10000 nM; and `COc1cc(Nc2ncc([N+](=O)[O-])c(Nc3ccc4oc(=O)[nH]c4c3)n2)ccc1C` [Compound I-44, 5-(2-(3-methoxy-4-methylphenylamino)-5-nitropyrimidin-4-ylamino)benzo[d]oxazol-2(3H)-one trifluoroacetate salt], with greater than 10000 nM; and `Cc1cnc(Nc2ccc3c(c2)COC3)nc1Nc1ccc2oc(=O)[nH]c2c1` [II-9, N2-(1,3-dihydro-isobenzofuran-5-yl)-5-methyl-N4-(2-oxo-2,3-dihydro-1,3-benzoxazol-5-yl)-2,4-pyrimidinediamine], with less than 500 nM.
The same measure for `O=c1[nH]c2cc(Nc3nc(Nc4ccccc4)ncc3Cl)ccc2o1` [Compound I-4, 5-(5-chloro-2-(phenylamino)pyrimidin-4-ylamino)benzo[d]oxazol-2(3H)-one trifluoroacetate salt]: less than 500 nM; for `CCN(CC)c1cc(Nc2ncc(C)c(Nc3ccc4oc(=O)[nH]c4c3)n2)cc(C)c1C` [Compound I-84, 5-(2-(3-(diethylamino)-4,5-dimethylphenylamino)-5-methylpyrimidin-4-ylamino)benzo[d]oxazol-2(3H)-one formate salt]: less than 500 nM; for `Cc1ccc(Nc2ncc(F)c(Nc3ccc4oc(=O)[nH]c4c3)n2)cc1` [Compound I-202, 5-(2-(p-tolylamino)-5-fluoropyrimidin-4-ylamino)benzo[d]oxazol-2(3H)-one trifluoroacetate salt]: 500 to 5000 nM.
Then `Cc1cc(Nc2ncc(CN3CCN(C)CC3)c(Nc3ccc4oc(=O)[nH]c4c3)n2)cc(C)c1C` [Compound I-100, 5-(2-(3,4,5-trimethylphenylamino)-5-((4-methylpiperazin-1-yl)methyl)pyrimidin-4-ylamino)benzo[d]oxazol-2(3H)-one], with 500 to 5000 nM; and `COc1cc(Nc2ncc(C)c(Nc3ccc4oc(=O)[nH]c4c3)n2)cc(F)c1C` [Compound I-120, 5-(2-(3-fluoro-5-methoxy-4-methylphenylamino)-5-methylpyrimidin-4-ylamino)benzo[d]oxazol-2(3H)-one trifluoroacetate salt], with less than 500 nM.
As for `Cc1cc(Nc2ncc(Cl)c(Nc3ccc4oc(=O)[nH]c4c3)n2)cc(N(C)C)c1C` [Compound I-83, 5-(5-chloro-2-(3-(dimethylamino)-4,5-dimethylphenylamino)pyrimidin-4-ylamino)benzo[d]oxazol-2(3H)-one trifluoroacetate salt], the half-maximal inhibitory concentration (IC50) was less than 500 nM.
Then `CCNc1cc(Nc2ncc(C)c(Nc3ccc4oc(=O)[nH]c4c3)n2)cc(C)c1C` [Compound I-85, 5-(2-(3-(ethylamino)-4,5-dimethylphenylamino)-5-methylpyrimidin-4-ylamino)benzo[d]oxazol-2(3H)-one formate salt], with less than 500 nM; and `Cc1cnc(N(C)c2ccccc2)nc1Nc1ccc2oc(=O)[nH]c2c1` [Compound I-26, 5-[5-Methyl-2-(methyl-phenyl-amino)-pyrimidin-4-ylamino]-3H-benzooxazol-2-one], with 500 to 5000 nM.
Then `COc1c(F)ccc(Nc2ncc([N+](=O)[O-])c(Nc3ccc4oc(=O)[nH]c4c3)n2)c1F` [Compound I-43, 5-(2-(2,4-difluoro-3-methoxyphenylamino)-5-nitropyrimidin-4-ylamino)benzo[d]oxazol-2(3H)-one trifluoroacetate salt], with greater than 10000 nM.

As usually defined, the IC50 is the concentration that inhibits the measured activity by half. The low end stands for higher potency, the high end for lower potency.
